Patent publication US5242942A, “Anticonvulsant fructopyranose cyclic sulfites and sulfates” (McNeilab, Inc., priority 1992, dated 1993)

System: tonic extensor seizure
Assay: maximal electroshock test (MES)
Format: in vivo, mouse (albino male CRS-CD1)
Conditions: mouse, PO, at 4 hr
Method: The compounds of formula (I) are particularly useful as anticonvulsant agents in mammals including humans. The anticonvulsant activity of the subject compounds was determined using a standard "maximal electroshock test" (MES). In this test, activity is indicated by a block of the […] extensor seizure caused by application of an electric shock to mice via corneal electrodes, as described by Swinyard et al. in J. Pharmacol. Expt. Ther. 1952, 106, 319, and recorded as % block. A more recent description of current anticonvulsant drug screening is given by Swinyard in Epilepsia 1978, 19, 409. The anticonvulsant activity of the compounds of this invention tested according to the Swinyard 1952 method is shown in the following Table I.
In the test, albino male CRS-CD1 mice weighing between 18-25 g were used in all experiments (obtained from Charles River). They were allowed food and water ad libitum and were used only once. The electroshock apparatus and the corneal electrodes were purchased from Wahlquist Instrument Company, Salt Lake City, Utah.
Maximal electroshock seizures were induced by the delivery of a 60 Hertz (Hz) current of 50 milliamps (mA) intensity to the mouse through corneal electrodes for 0.2 seconds as originally described by Swinyard et al. (1952). This stimulus intensity is approximately 4 to 6 times the current producing 100% tonic extensor convulsions. During the validation of the MES test, the duration of the various seizure components following maximal electroshock were measured as follows: hindleg tonic flexion was measured from the time of the application of the stimulus to the time of onset of hindleg tonic extension (i.e. when the hindlegs deviate by greater than an angle of 90° from the torso), hindleg tonic extensor was measured from the time of extensor thrust to the onset of generalized clonus, and terminal clonus was measured from the beginning to the end of bilateral rhythmic clonic jerking. Mortality was also recorded. The duration of each seizure component agreed well with the values previously reported by Tedeschi et al. in J. Pharmacol. Expt. Ther. 1955, 116, 107. The corneal electrodes were concave so that saline could be applied to the electrodes to reduce mortality. If this procedure is followed, mortality should always be less than 40% in control mice. Thus, at an electroshock stimulus of 60 Hz, 50 mA and 0.2 seconds duration, the order of convulsive components and the percentage of control animals displaying the behaviors should be as follows: tonic flexion (100%), tonic extension (100%) and clonus (100%) with less than 40% mortality.
For testing compounds, the abolition of the tonic extensor component was the endpoint. Animals were dosed orally (PO) with either vehicle or test drug and at a specified time were given a maximal electric shock through corneal electrodes blotted with saline (as described above). A minimum of 10 animals were used per group and the percentage of animals in the group without tonic hindlimb extension recorded. Determination of ED50 values (that dose of drug inhibiting 50% of the tonic extensor seizures) is shown below in Table I.

`CC1(C)O[C@H]2[C@@H]3OS(=O)(=O)O[C@@H]3CO[C@@]2(COS(N)(=O)=O)O1` [Example 1, 2,3-O-(1-Methylethylidene)-4,5-O-sulfonyl-β-D-fructopyranose Sulfamate] gave an ED50 of 6.3 mg/kg.
